What all share (assay): relative viability (nuclei count vs DMSO), 5 days (fraction); higher = more cells survive
Compound in assay [1]: CC(=O)c1c(C)c2cnc(Nc3ccc(N4CCNCC4)cn3)nc2n(C2CCCC2)c1=O [Palbociclib] + Cc1cc(Nc2cc(N3CCN(C)CC3)nc(Sc3ccc(NC(=O)C4CC4)cc3)n2)n[nH]1 [Tozasertib] (partner 0.1 µM)
Put shortly: (§1)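 Nuclei were stained with Hoechst during a one-step fixation (final 0.05% Triton X-100, 1% formaldehyde, 1 ug/ml Hoechst) carried out 5 days after dosing, then counted on 4× images. The cells, lung cancer lines in 1536-well plates, had been dosed by pin tool the day after seeding with one drug alone or a fixed anchor-drug dose plus five library-drug doses (not always all listed) in √10 steps. Relative viability is the nuclei count in treated wells divided by that in vehicle wells, and each value is the median of duplicate plates.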

Compound in assay [2]: CC(=O)c1c(C)c2cnc(Nc3ccc(N4CCNCC4)cn3)nc2n(C2CCCC2)c1=O [Palbociclib] + CS(=O)(=O)CCNCc1ccc(-c2ccc3ncnc(Nc4ccc(OCc5cccc(F)c5)c(Cl)c4)c3c2)o1 [Lapatinib] (partner 2 µM)
Summed up:
as §1

Compound in assay [3]: CC(=O)c1c(C)c2cnc(Nc3ccc(N4CCNCC4)cn3)nc2n(C2CCCC2)c1=O [Palbociclib] + Nc1ncn([C@H]2C[C@H](O)[C@@H](CO)O2)c(=O)n1 [Decitabine] (partner 2 µM)
Summed up:
as §1

Compound in assay [4]: CC(=O)c1c(C)c2cnc(Nc3ccc(N4CCNCC4)cn3)nc2n(C2CCCC2)c1=O [Palbociclib] + C[C@]1(O)C[C@@H](c2nc(-c3ccc4ccc(-c5ccccc5)nc4c3)c3c(N)nccn32)C1 [Linsitinib] (partner 1 µM)
Summed up:
as §1

NCI-H3122: the relative viability in assay [1] (first compound 0.01 µM) came to 0.344; in assay [1] (first compound 0.03162 µM) it was 0.212; in assay [1] (first compound 0.1 µM), 0.231; in assay [1] (first compound 0.3162 µM), 0.234; in assay [1] (first compound 1 µM) it was 0.143; in assay [2] (first compound 0.01 µM), 0.994. Further, the relative viability amounted to 0.998 in assay [2] (first compound 0.03162 µM); 0.911 in assay [2] (first compound 0.1 µM); 0.819 in assay [2] (first compound 0.3162 µM); 0.579 in assay [2] (first compound 1 µM); 0.394 in assay [3] (first compound 0.01 µM); 0.423 in assay [3] (first compound 0.03162 µM). Besides, the relative viability in assay [3] (first compound 0.1 µM) turned out to be 0.347; in assay [3] (first compound 0.3162 µM), 0.33; in assay [3] (first compound 1 µM), 0.277; in assay [4] (first compound 0.01 µM), 0.925; in assay [4] (first compound 0.03162 µM), 1.02; in assay [4] (first compound 0.1 µM) it was 0.943. Also, the figures for the relative viability in assay [4] (first compound 0.3162 µM) and in assay [4] (first compound 1 µM) were 0.809 and 0.63, respectively.

Consider NCI-H23, for which the relative viability stood at 0.335 in assay [1] (first compound 0.01 µM); 0.381 in assay [1] (first compound 0.1 µM); 0.378 in assay [1] (first compound 0.3162 µM); 0.412 in assay [1] (first compound 1 µM); 1 in assay [2] (first compound 0.01 µM); 1.05 in assay [2] (first compound 0.1 µM). Besides, the relative viability in assay [2] (first compound 0.3162 µM) turned out to be 0.804; in assay [2] (first compound 1 µM), 0.589; in assay [3] (first compound 0.01 µM), 0.28; in assay [3] (first compound 0.03162 µM), 0.341; in assay [3] (first compound 0.1 µM), 0.283; in assay [3] (first compound 0.3162 µM), 0.362. Moreover, the relative viability is 0.33 in assay [3] (first compound 1 µM); 0.794 in assay [4] (first compound 0.01 µM); 0.509 in assay [4] (first compound 0.1 µM); 0.46 in assay [4] (first compound 0.3162 µM); 0.398 in assay [4] (first compound 1 µM).

For the cell line NCI-H460, the relative viability in assay [1] (first compound 0.01 µM) worked out at 0.33; in assay [1] (first compound 0.03162 µM) it was 0.0915; in assay [1] (first compound 0.1 µM), 0.563; in assay [1] (first compound 0.3162 µM), 0.486; in assay [1] (first compound 1 µM), 0.467; in assay [2] (first compound 0.01 µM), 0.92. Moreover, the relative viability in assay [2] (first compound 0.03162 µM) was found to be 0.813; in assay [2] (first compound 0.1 µM) it was 0.71; in assay [2] (first compound 0.3162 µM), 0.516; in assay [2] (first compound 1 µM) it was 0.207; in assay [3] (first compound 0.01 µM), 0.432; in assay [3] (first compound 0.03162 µM), 0.415. In addition, the relative viability came to 0.503 in assay [3] (first compound 0.1 µM); 0.46 in assay [3] (first compound 0.3162 µM); 0.264 in assay [3] (first compound 1 µM); 0.903 in assay [4] (first compound 0.01 µM); 0.529 in assay [4] (first compound 0.03162 µM); 0.483 in assay [4] (first compound 0.1 µM). Besides, the values for the relative viability in assay [4] (first compound 0.3162 µM) and in assay [4] (first compound 1 µM) were 0.288 and 0.117, respectively.

LC-2-ad: the relative viability in assay [1] (first compound 0.01 µM) stood at 0.461; in assay [1] (first compound 0.1 µM) it was 0.453; in assay [1] (first compound 0.3162 µM), 0.428; in assay [1] (first compound 1 µM) it was 0.439; in assay [2] (first compound 0.01 µM), 0.947; in assay [2] (first compound 0.1 µM) it was 0.736. The relative viability in assay [2] (first compound 0.3162 µM) is 0.705; in assay [2] (first compound 1 µM), 0.491; in assay [3] (first compound 0.01 µM), 0.82; in assay [3] (first compound 0.03162 µM), 0.781; in assay [3] (first compound 0.1 µM) it was 0.758; in assay [3] (first compound 0.3162 µM), 0.691. Also, the relative viability in assay [3] (first compound 1 µM) turned out to be 0.756; in assay [4] (first compound 0.01 µM), 0.884; in assay [4] (first compound 0.1 µM), 0.735; in assay [4] (first compound 0.3162 µM), 0.611; in assay [4] (first compound 1 µM), 0.395.

As to HCC-827, the relative viability worked out at 0.424 in assay [1] (first compound 0.01 µM); 0.4 in assay [1] (first compound 0.03162 µM); 0.358 in assay [1] (first compound 0.1 µM); 0.389 in assay [1] (first compound 0.3162 µM); 0.366 in assay [1] (first compound 1 µM); 0.217 in assay [2] (first compound 0.01 µM). Moreover, the relative viability in assay [2] (first compound 0.03162 µM) was determined as 0.19; in assay [2] (first compound 0.1 µM), 0.161; in assay [2] (first compound 0.3162 µM) it was 0.202; in assay [2] (first compound 1 µM) it was 0.182; in assay [3] (first compound 0.01 µM), 0.369; in assay [3] (first compound 0.03162 µM), 0.294. In addition, the relative viability came to 0.289 in assay [3] (first compound 0.1 µM); 0.314 in assay [3] (first compound 0.3162 µM); 0.265 in assay [3] (first compound 1 µM); 0.945 in assay [4] (first compound 0.01 µM); 0.879 in assay [4] (first compound 0.03162 µM); 0.88 in assay [4] (first compound 0.1 µM). The figures for the relative viability in assay [4] (first compound 0.3162 µM) and in assay [4] (first compound 1 µM) were 0.885 and 0.71, respectively.

The record behind these values is the supplement of paper PMC10307832.
